Key:
human H3 receptor [1] = molecular target: T1, human H3 receptor (Homo sapiens, UniProt Q9Y5N1); test: In vitro H3 functional assay (cAMP response element driven luciferase reporter); assay type: cell-based; conditions: CHO(dhfr+)-cre-luc cells expressing human H3 receptor; RαMH 10 nM, forskolin 1 μM; read-out: hH3 functional IC50
T1 construct: expressed in transfected cells
Procedure: The functional activity of compounds at the H3 receptor was determined by measuring changes in the level of intracellular cAMP using a cAMP response element driven luciferase reporter assay. The changes in luciferase expression were monitored by a luminescence plate reader, Analyst HT (MDS Analytical). Increases in intracellular cAMP were readily detected upon activation of protein kinase A by forskolin (Sigma) and suppression of this response observed with the application of the H3 receptor agonist RαMH (Sigma).
CHO(dhfr^+)-cre-luc cells stably expressing human H3 receptor were routinely grown as monolayers in Minimal Essential Medium α (MEMα) (Invitrogen) supplemented with 10% dialysed FBS (Hyclone), in 5% CO2 at 37° C. 48 hours prior to assay, cells were seeded in clear-base white walled 384-well plates (Corning) at a density of 5000 cells/well. On the day of assay, growth media was removed and replaced with […] of assay buffer (MEMα, 5 mg/ml fatty acid free BSA (Sigma)) per well. Cells were then incubated for 30 minutes at 37° C., 5% CO2. Compound was serially diluted in DMSO before being diluted 1:10 with assay buffer. 2.5 of compound diluted in assay buffer was added and cells incubated for 5 minutes at 37° C., 5% CO2. 2.5 μl of each reagent was then added in the following order: RαMH (10 nM), isobutylmethylxanthine (1-methyl-3-(2-methylpropyl)-7H-purine-2,6-dione; IBMX) (500 μM) (Sigma) and forskolin (1 μM). Cells were then incubated for 90 minutes at 37° C., 5% CO2, followed by 30 minutes at room temperature. At the end of incubation 25 μl of Steadylite reagent (Perkin Elmer) was added, plates were sealed and placed on a shaker for 5 minutes. The level of light output to determine the level of luciferase expression was then measured.
IC50 values for compounds were determined from ten point half log scale dose-response studies and represent the concentration of compound required to […] 50% inhibition of forskolin stimulated cells in the presence of RαMH alone. Curves were generated using the average of duplicate wells for each data point and analyzed using nonlinear regression of four parameter dose response.

human H3 receptor [2] = molecular target: T1, human H3 receptor; test: In vitro H3 binding assay (3H-N-α-methyl-histamine competition binding); conditions: membranes of CHO-K1 cells expressing human H3 receptor; 2 nM 3H-NαMH; read-out: hH3 binding IC50
Summary of the method: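 Membranes from CHO-K1 cells stably expressing human H3 (5 μg/well) incubated 1 h at room temperature with compound and 2 nM ³H-NαMH in 50 mM Tris-HCl pH 7.4, 5 mM MgCl2; non-specific binding defined with 1 μM RαMH. Bound radioactivity measured by filtration and scintillation; IC50 from seven-point curves by variable-slope sigmoidal regression.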

T1 sequence (Q9Y5N1 whole entry): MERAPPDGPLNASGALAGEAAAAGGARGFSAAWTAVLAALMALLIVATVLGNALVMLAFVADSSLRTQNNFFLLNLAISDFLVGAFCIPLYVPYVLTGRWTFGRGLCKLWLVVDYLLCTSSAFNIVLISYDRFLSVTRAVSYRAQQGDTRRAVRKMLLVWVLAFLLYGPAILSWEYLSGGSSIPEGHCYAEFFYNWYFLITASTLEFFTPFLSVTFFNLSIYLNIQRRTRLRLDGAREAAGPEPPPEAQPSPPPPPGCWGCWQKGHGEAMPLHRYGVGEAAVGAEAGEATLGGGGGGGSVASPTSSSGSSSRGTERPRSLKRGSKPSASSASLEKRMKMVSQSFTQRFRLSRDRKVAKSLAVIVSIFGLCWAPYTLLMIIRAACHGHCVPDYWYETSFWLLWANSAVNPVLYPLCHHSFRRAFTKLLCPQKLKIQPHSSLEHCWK

## O=C(NCc1nc2ccccc2s1)c1ccc2c(c1)CCN(C1CCC1)CC2 [Example 78, N-(Benzo[d]thiazol-2-ylmethyl)-3-cyclobutyl-2,3,4,5-tetrahydro-1H-benzo[d]azepine-7-carboxamide]
Human H3 receptor [1]
  IC50: 2 nM
Human H3 receptor [2]
  IC50: 4 nM

## Cn1c(CNC(=O)c2ccc3c(c2)CCN(C2CCC2)CC3)nc2ccccc21 [Example 79, 3-Cyclobutyl-N-((1-methyl-1H-benzo[d]imidazol-2-yl)methyl)-2,3,4,5-tetrahydro-1H-benzo[d]azepine-7-carboxamide]
Human H3 receptor [1]
  IC50: 3 nM
Human H3 receptor [2]
  IC50: 6 nM

## O=C(NCc1ccc2nccn2c1)c1ccc2c(c1)CCN(C1CCC1)CC2 [Example 81, 3-Cyclobutyl-N-(imidazo[1,2-a]pyridin-6-ylmethyl)-2,3,4,5-tetrahydro-1H-benzo[d]azepine-7-carboxamide]
Human H3 receptor [1]
  IC50: 0.8 nM
Human H3 receptor [2]
  IC50: 0.4 nM

## O=C(NCc1nccs1)c1ccc2c(c1)CCN(C1CCC1)CC2 [Example 86, 3-Cyclobutyl-N-(thiazol-2-ylmethyl)-2,3,4,5-tetrahydro-1H-benzo[d]azepine-7-carboxamide]
Human H3 receptor [1]
  IC50: 1 nM
Human H3 receptor [2]
  IC50: 3 nM

## O=C(NCc1ccsc1)c1ccc2c(c1)CCN(C1CCC1)CC2 [Example 88, 3-Cyclobutyl-N-(thiophen-3-ylmethyl)-2,3,4,5-tetrahydro-1H-benzo[d]azepine-7-carboxamide]
Human H3 receptor [1]
  IC50: 2 nM
Human H3 receptor [2]
  IC50: 5 nM

## O=C(NCc1ccc(C(F)(F)F)o1)c1ccc2c(c1)CCN(C1CCC1)CC2 [Example 92, 3-cyclobutyl-N-((5-(trifluoromethyl)furan-2-yl)methyl)-2,3,4,5-tetrahydro-1H-benzo[d]azepine-7-carboxamide]
Human H3 receptor [1]
  IC50: 1 nM
Human H3 receptor [2]
  IC50: 4 nM

## Cc1c(CNC(=O)c2ccc3c(c2)CCN(C2CCC2)CC3)cnn1C [Example 97, 3-Cyclobutyl-N-((1,5-dimethyl-1H-pyrazol-4-yl)methyl)-2,3,4,5-tetrahydro-1H-benzo[d]azepine-7-carboxamide]
Human H3 receptor [1]
  IC50: 2 nM
Human H3 receptor [2]
  IC50: 9 nM

## CCn1nccc1CNC(=O)c1ccc2c(c1)CCN(C1CCC1)CC2 [Example 100, 3-cyclobutyl-N-((1-ethyl-1H-pyrazol-5-yl)methyl)-2,3,4,5-tetrahydro-1H-benzo[d]azepine-7-carboxamide]
Human H3 receptor [1]
  IC50: 0.5 nM
Human H3 receptor [2]
  IC50: 2 nM

## Cn1ccc(CNC(=O)c2ccc3c(c2)CCN(C2CCC2)CC3)n1 [Example 103, 3-Cyclobutyl-N-((1-methyl-1H-pyrazol-3-yl)methyl)-2,3,4,5-tetrahydro-1H-benzo[d]azepine-7-carboxamide]
Human H3 receptor [1]
  IC50: 1 nM
Human H3 receptor [2]
  IC50: 11 nM

## Cn1nc(CNC(=O)c2ccc3c(c2)CCN(C2CCC2)CC3)cc1-c1ccccc1 [Example 108, 3-Cyclobutyl-N-((1-methyl-5-phenyl-1H-pyrazol-3-yl)methyl)-2,3,4,5-tetrahydro-1H-benzo[d]azepine-7-carboxamide]
Human H3 receptor [1]
  IC50: 4 nM
Human H3 receptor [2]
  IC50: 1 nM

## Cn1cccc1CNC(=O)c1ccc2c(c1)CCN(C1CCC1)CC2 [Example 111, 3-Cyclobutyl-N-((1-methyl-1H-pyrrol-2-yl)methyl)-2,3,4,5-tetrahydro-1H-benzo[d]azepine-7-carboxamide]
Human H3 receptor [1]
  IC50: 7 nM
Human H3 receptor [2]
  IC50: 7 nM

## Cn1cncc1CNC(=O)c1ccc2c(c1)CCN(C1CCC1)CC2 [Example 114, 3-Cyclobutyl-N-((1-methyl-1H-imidazol-5-yl)methyl)-2,3,4,5-tetrahydro-1H-benzo[d]azepine-7-carboxamide]
Human H3 receptor [1]
  IC50: 19 nM
Human H3 receptor [2]
  IC50: 12 nM

## Cn1ccc(CCC(=O)c2ccc3c(c2)CCN(C2CCC2)CC3)n1 [Example 134, 1-(3-cyclobutyl-2,3,4,5-tetrahydro-1H-benzo[d]azepin-7-yl)-3-(1-methyl-1H-pyrazol-3-yl)propan-1-one]
Human H3 receptor [1]
  IC50: 1 nM
Human H3 receptor [2]
  IC50: 13 nM

## OC(Cc1ccc2c(c1)CCN(C1CCC1)CC2)c1ccccn1 (stereo not shown) [Example 143, 2-(3-cyclobutyl-2,3,4,5-tetrahydro-1H-benzo[d]azepin-7-yl)-1-(pyridin-2-yl)ethanol]
Human H3 receptor [1]
  IC50: 7 nM
Human H3 receptor [2]
  IC50: 24 nM

## CC(=O)N1CCCC(CNC(=O)c2ccc3c(c2)CCN(C2CCC2)CC3)C1 (stereo not shown) [Example 164, N-((1-acetylpiperidin-3-yl)methyl)-3-cyclobutyl-2,3,4,5-tetrahydro-1H-benzo[d]azepine-7-carboxamide]
Human H3 receptor [1]
  IC50: 5 nM
Human H3 receptor [2]
  IC50: 10 nM

## NC(=O)c1ccc2c(c1)CCN(C1CCC1)CC2 [Example 167, 3-cyclobutyl-2,3,4,5-tetrahydro-1H-benzo[d]azepine-7-carboxamide]
Human H3 receptor [1]
  IC50: 71 nM
Human H3 receptor [2]
  IC50: 22 nM

## O=C(NCC1CCS(=O)(=O)C1)c1ccc2c(c1)CCN(C1CCC1)CC2 (stereo not shown) [Example 171, 3-Cyclobutyl-2,3,4,5-tetrahydro-1H-benzo[d]azepine-7-carboxylic acid (1,1-dioxo-tetrahydro-1lambda*6*-thiophen-3-ylmethyl)-amide]
Human H3 receptor [1]
  IC50: 4 nM
Human H3 receptor [2]
  IC50: 14 nM

## O=C(NCc1ccc2c(c1)CCN(C1CCC1)CC2)c1cnccn1 [Example 181, N-((3-cyclobutyl-2,3,4,5-tetrahydro-1H-benzo[d]azepin-7-yl)methyl)pyrazine-2-carboxamide]
Human H3 receptor [1]
  IC50: 4 nM
Human H3 receptor [2]
  IC50: 21 nM

## O=C(NCc1ccc2c(c1)CCN(C1CCC1)CC2)c1cncc(F)c1 [Example 191, N-((3-cyclobutyl-2,3,4,5-tetrahydro-1H-benzo[d]azepin-7-yl)methyl)-5-fluoronicotinamide]
Human H3 receptor [1]
  IC50: 2 nM
Human H3 receptor [2]
  IC50: 13 nM

## O=C(NCc1ccc2c(c1)CCN(C1CCC1)CC2)N1CCCC1 [Example 194, N-((3-cyclobutyl-2,3,4,5-tetrahydro-1H-benzo[d]azepin-7-yl)methyl)pyrrolidine-1-carboxamide]
Human H3 receptor [1]
  IC50: 7 nM
Human H3 receptor [2]
  IC50: 26 nM

## Cc1ncc(C(=O)NCc2ccc3c(c2)CCN(C2CCC2)CC3)cn1 [Example 211, N-((3-cyclobutyl-2,3,4,5-tetrahydro-1H-benzo[d]azepin-7-yl)methyl)-2-methylpyrimidine-5-carboxamide]
Human H3 receptor [1]
  IC50: 9 nM
Human H3 receptor [2]
  IC50: 6 nM

## CC(C)(O)CC(=O)NCc1ccc2c(c1)CCN(C1CCC1)CC2 [Example 216, N-((3-cyclobutyl-2,3,4,5-tetrahydro-1H-benzo[d]azepin-7-yl)methyl)-3-hydroxy-3-methylbutanamide]
Human H3 receptor [1]
  IC50: 20 nM
Human H3 receptor [2]
  IC50: 41 nM

## Cn1nccc1NC(=O)Cc1ccc2c(c1)CCN(C1CCC1)CC2 [Example 221, 2-(3-cyclobutyl-2,3,4,5-tetrahydro-1H-benzo[d]azepin-7-yl)-N-(1-methyl-1H-pyrazol-5-yl)acetamide]
Human H3 receptor [1]
  IC50: 3 nM
Human H3 receptor [2]
  IC50: 11 nM

## O=C(Cc1ccc2c(c1)CCN(C1CCC1)CC2)Nc1cccnc1 [Example 224, 2-(3-cyclobutyl-2,3,4,5-tetrahydro-1H-benzo[d]azepin-7-yl)-N-(pyridin-3-yl)acetamide]
Human H3 receptor [1]
  IC50: 4 nM
Human H3 receptor [2]
  IC50: 2 nM

## CCNC(=O)C1CCC(O)(Cc2ccc3c(c2)CCN(C2CCC2)CC3)CC1 (stereo not shown) [Example 231, 4-((3-cyclobutyl-2,3,4,5-tetrahydro-1H-benzo[d]azepin-7-yl)methyl)-N-ethyl-4-hydroxycyclohexanecarboxamide]
Human H3 receptor [1]
  IC50: 15 nM
Human H3 receptor [2]
  IC50: 23 nM

## CC(C)(O)c1ccc(C(=O)NCc2ccc3c(c2)CCN(C2CCC2)CC3)cn1 [Example 239, N-((3-cyclobutyl-2,3,4,5-tetrahydro-1H-benzo[d]azepin-7-yl)methyl)-6-(2-hydroxypropan-2-yl)nicotinamide]
Human H3 receptor [1]
  IC50: 1 nM
Human H3 receptor [2]
  IC50: 16 nM

## O=C(NCc1ccc2c(c1)CCN(C1CC(F)C1)CC2)c1ccc(N2CCCC2)nc1 (stereo not shown) [Example 242, N-((3-(3-fluorocyclobutyl)-2,3,4,5-tetrahydro-1H-benzo[d]azepin-7-yl)methyl)-6-(pyrrolidin-1-yl)nicotinamide]
Human H3 receptor [1]
  IC50: 3 nM
Human H3 receptor [2]
  IC50: 0.6 nM

## COc1ccc(CC(=O)Cc2ccc3c(c2)CCN(C2CCC2)CC3)cn1 [Example 244, 1-(3-cyclobutyl-2,3,4,5-tetrahydro-1H-benzo[d]azepin-7-yl)-3-(6-methoxypyridin-3-yl)propan-2-one]
Human H3 receptor [1]
  IC50: 6 nM
Human H3 receptor [2]
  IC50: 10 nM

## O=C(NCc1ccc2c(c1)CCN(C1CCC1)CC2)c1ccc(NC2CCC2)nc1 [Example 253, N-((3-cyclobutyl-2,3,4,5-tetrahydro-1H-benzo[d]azepin-7-yl)methyl)-6-(cyclobutylamino)nicotinamide]
Human H3 receptor [1]
  IC50: 4 nM
Human H3 receptor [2]
  IC50: 1 nM

Reference: US20110124626A1, “BENZAZEPINE DERIVATIVES AND THEIR USE AS HISTAMINE H3 ANTAGONISTS” (TAKEDA PHARMACEUTICAL COMPANY LIMITED, priority 2008, published 2011)
